Data: the supplement of paper PMC10307832

How the values were obtained:
[1] = compound: C[C@@H](C(=O)N[C@@H](C1CCCCC1)C(=O)N2CCC[C@H]2C(=O)N[C@@H]3[C@@H](CC4=CC=CC=C34)OCC#CC#CCO[C@@H]5CC6=CC=CC=C6[C@@H]5NC(=O)[C@@H]7CCCN7C(=O)[C@H](C8CCCCC8)NC(=O)[C@H](C)NC)NC [AZD5582]; experiment: relative viability (nuclei count vs DMSO), 5 days (fraction); higher = more cells survive
How it was run: (§1)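 Vehicle-anchored 1536-well plates of lung cancer cell lines, held overnight at 37 °C, were pinned with five library-drug doses (not always all listed) spaced by √10. No medium change followed over the next 5 days, after which the cells were fixed, permeabilised and Hoechst-stained together and imaged at 4×. Nuclei were counted with MetaXpress, and viability is treated-well nuclei over vehicle-well nuclei, taken as a median across plates. Plates passed with control CV below 25% and at least one doubling.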

[2] = compound: Cn1nnc2c(C(N)=O)ncn2c1=O [Temozolomide]; experiment: as above
How it was run: as §1

Row | Cell Line | relative viability ([1]; 0.001581 µM) | relative viability ([1]; 0.005 µM) | relative viability ([1]; 0.01581 µM) | relative viability ([1]; 0.05 µM) | relative viability ([2]; 0.2 µM) | relative viability ([2]; 0.6325 µM) | relative viability ([2]; 2 µM) | relative viability ([2]; 6.325 µM) | relative viability ([2]; 20 µM)
1 | RERF-LC-KJ | 0.715 | 0.668 | 0.912 | 0.802 | 0.982 | 1 | 1.04 | 0.978 | 1.01
2 | SK-LU-1 | 0.888 | 0.777 | 0.939 | 0.47 | 1.09 | 1.03 | 0.899 | 0.554 | 0.467
3 | SK-MES-1 | 0.943 | 1.15 | 0.972 | 1.09 | 1.13 | 1.02 | 1.06 | 1.05 | 0.889
4 | SW 900 | 0.628 | 0.851 | 0.684 | 0.466 | 1.07 | 1.1 | 0.984 | 0.772 | 0.793
5 | SW 1573 | 0.939 | 1.04 | 1.03 | 1.13 | 0.998 | 0.992 | 1.07 | 0.948 | 0.971
6 | UMC-11 | 0.887 | 1.01 | 0.96 | 1.03 | 0.994 | 1.06 | 1.05 | 0.858 | 0.677
